Assay: static efficiency test of sulfate scale inhibition
Conditions: 90° C., one hour after mixing anion and cation brine 1:1 (v/v), Ba2+ in solution; for inhibition efficiency, Brine A: SI dosage 1 ppm; for inhibition efficiency, Brine B: SI dosage 7.5 ppm; for inhibition efficiency, Brine C: SI dosage 5 ppm; for inhibition efficiency, Brine D: SI dosage 30 ppm
Method: Anion brine and cation brines A, B, C, and D were prepared according to Table 1. The preheated anion brine and cation brine were mixed at 1:1 (v/v) ratio to achieve the targeted concentration. Briefly. In the blank test, no scale inhibitor (SI) was added, but a known amount of various SI was added to other test bottles to understand the performance of various SIs. In the scale inhibition tests, inhibition performance or inhibition efficiency at 90° C., especially for barite inhibition at one hour after mixing of anion and cation brine with and without presence of SI was determined using the following equation:
[formula] • At where: • Ca is the concentration (mg/L) of Ba^2+ in solution after the one-hour test with scale inhibitor. • Cb is the concentration (mg/L) of Ba^2+ in solution in the blank after the one-hour test (without scale inhibitor). • Co is the concentration (mg/L) of the resulting Ba^2+ in synthetic water.
The SI dosages in Brine A, B, C and […] was 1, 7.5, 5, and 30 ppm, respectively.

| Structure (SMILES) | inhibition efficiency, Brine A | inhibition efficiency, Brine B | inhibition efficiency, Brine C | inhibition efficiency, Brine D |
| --- | --- | --- | --- | --- |
| O=P(O)(O)CN(CCN(CP(=O)(O)O)CP(=O)(O)O)CCN(CP(=O)(O)O)CP(=O)(O)O [DTPMP, diethylenetriamine penta(methylene phosphonic acid), reference compound] | 94% | 77% | 100% | 24% |
| O=P(O)(O)CN(CC(O)COCC(O)C(OCC(O)CN(CP(=O)(O)O)CP(=O)(O)O)C(O)C(COCC(O)CN(CP(=O)(O)O)CP(=O)(O)O)OCC(O)CN(CP(=O)(O)O)CP(=O)(O)O)CP(=O)(O)O (stereo not shown) [Example 1, 1,3,5,6-Tetrakis{3-[bis(phosphonomethyl)amino]-2-hydroxypropoxy}-2,4-hexandiol] | 57% | 88% | 67% | 42% |
| O=P(O)(O)CN(CCNCC(O)COCC(O)C(OCC(O)CNCCN(CP(=O)(O)O)CP(=O)(O)O)C(O)C(COCC(O)CNCCN(CP(=O)(O)O)CP(=O)(O)O)OCC(O)CNCCN(CP(=O)(O)O)CP(=O)(O)O)CP(=O)(O)O (stereo not shown) [Example 2, 12,14-bis(3-((2-(bis(phosphonomethyl)amino)ethyl)amino)-2-hydroxypropoxy)-2,23-(bis(phosphonomethyl)amino)-9,16-dioxa-2,5,20,23-tetraazatetracosane-7,11,13,18-tetraol] | 100% | 100% | 84% | 83% |
| O=P(O)(O)CN(CCO)CC(O)COCC(O)C(OCC(O)CN(CCO)CP(=O)(O)O)C(O)C(COCC(O)CN(CCO)CP(=O)(O)O)OCC(O)CN(CCO)CP(=O)(O)O (stereo not shown) [Example 3, 10,12-bis(2-hydroxy-3-((2-hydroxyethyl)(phosphonomethyl)amino)propoxy)-3,18-bis(phosphonomethyl)-7,14-dioxa-3,18-diazaicosane-1,5,9,11,16,20-hexaol] | 48% | 36% | 71% | 5% |
| CN(CC(O)COCC(O)C(OCC(O)CN(C)CP(=O)(O)O)C(O)C(COCC(O)CN(C)CP(=O)(O)O)OCC(O)CN(C)CP(=O)(O)O)CP(=O)(O)O (stereo not shown) [Example 4] | 23% | 7% | 5% | 2% |
| O=P(O)(O)CN(CC(O)COCC(CO)OCC(O)CN(CP(=O)(O)O)CP(=O)(O)O)CP(=O)(O)O (stereo not shown) [Example 5] | 42% | 86% | 86% | 42% |
| O=P(O)(O)CN(CC(O)COCCCCOCC(O)CN(CP(=O)(O)O)CP(=O)(O)O)CP(=O)(O)O (stereo not shown) [Example 6, 3,3-(butane-1,4-diylbis(oxy))bis(1-(bis(phosphonomethyl))propan-2-ol)] | 47% | 63% | 98% | 6% |
